Reference: patent publication US6703347B2, “Isothiazole derivatives and their use as pesticides” (Syngenta Limited, priority 2000, dated 2004)
Where two headings read alike, the source gives them in different places.

Key:
[1] = tested on: Plasmopara viticola (PLASVI); experiment: foliar fungicide test on vines (Example 19); assay type: in vivo; settings: 100 ppm foliar (Prot) application on vines; inoculated 6 hours or one day after application
[2] = tested on: peach potato aphids (Myzus persicae); settings: 500 ppm by weight; infested Chinese cabbage leaves sprayed; mortality assessed after three days
Description: (§1) This Example illustrates the pesticidal/insecticidal properties of compounds of formula (I). The activities of individual compounds of formula (I) were determined using a variety of pests. The pests were treated with a liquid composition containing 500 parts per million (ppm) by weight of a compound of formula (I). Each composition was made by dissolving the compound in an acetone and ethanol (50:50 by volume) mixture and diluting the solution with water containing 0.05% by volume of a wetting agent, SYNPERONIC NP8, until the liquid composition contained the required concentration of the compound.
(§2) The test procedure adopted with regard to each pest was essentially the same and comprised supporting a number of the pests on a medium, which was usually a substrate, a host plant or a foodstuff on which the pests feed, and treating either or both the medium and the pests with a composition. Pest mortality was assessed usually between two and five days after treatment.
(§3) In each test against peach potato aphids (Myzus persicae), Chinese cabbage leaves were infested with aphids, the infested leaves were sprayed with a test composition and pest mortality was assessed after three days.

[3] = tested on: two-spotted spider mites (Tetranychus urticae); settings: liquid composition containing 500 ppm by weight of compound
Description: (§4) The activities of individual compounds of formula (I) were determined using a variety of pests. The pests were treated with a liquid composition containing 500 parts per million (ppm) by weight of a compound of formula (I). Each composition was made by dissolving the compound in an acetone and ethanol (50:50 by volume) mixture and diluting the solution with water containing 0.05% by volume of a wetting agent, SYNPERONIC NP8, until the liquid composition contained the required concentration of the compound.
as §2
(§5) Similar tests were conducted against, independently, two-spotted spider mites (Tetranychus urticae), fruit flies (Drosophila melanogaster), tobacco budworms (Heliothis virescens), diamond back moth (Plutella xylostella) and corn root worm (Diabrotica balteata).

[4] = tested on: Puccinia recondita (PUCCRT); experiment: foliar fungicide test on wheat (Example 19); assay type: in vivo; settings: 100 ppm foliar (Prot) application on wheat; inoculated 6 hours or one day after application
[5] = tested on: Blumeria graminis f.sp. tritici (ERYSGT); experiment: foliar fungicide test on wheat (Example 19); assay type: in vivo; settings: 100 ppm foliar (Prot) application on wheat; inoculated 6 hours or one day after application
[6] = tested on: tobacco budworms (Heliothis virescens); experiment: pesticidal test against tobacco budworms; settings: liquid composition containing 500 ppm by weight of compound
Description: as §4, §2, §5

[7] = tested on: corn root worm (Diabrotica balteata); experiment: pesticidal test against corn root worm; settings: liquid composition containing 500 ppm by weight of compound
Description: as §4, §2, §5

[8] = tested on: fruit flies (Drosophila melanogaster); experiment: pesticidal test against fruit flies; settings: liquid composition containing 500 ppm by weight of compound
Description: as §4, §2, §5

[9] = tested on: diamond back moth (Plutella xylostella); experiment: pesticidal test against diamond back moth; settings: liquid composition containing 500 ppm by weight of compound
Description: as §4, §2, §5

[10] = tested on: Phytophthora infestans lycopersici (PHYTIN); assay type: in vivo; settings: 100 ppm foliar (Prot) application on tomatoes; inoculated 6 hours or one day after application
[11] = tested on: Phytophthora infestans lycopersici (PHYTIN); assay type: in vivo; settings: 100 ppm foliar spray on tomatoes; inoculated one day after chemical application (Prot)
[12] = tested on: Uncinula necator (UNCINE); experiment: foliar fungicide test on vines (Example 18); assay type: in vivo; settings: 100 ppm foliar spray on vines; for UNCINE Erad, PRCO (Percentage Reduction from Control): inoculated one day before chemical application (Erad)
[13] = tested on: Puccinia recondita (PUCCRT); experiment: foliar fungicide test on wheat (Example 18); assay type: in vivo; settings: 100 ppm foliar spray on wheat; inoculated one day after chemical application (Prot)
[14] = tested on: Pyricularia oryzae (PYRIOR); assay type: in vivo; settings: 100 ppm foliar spray on rice; inoculated one day after chemical application (Prot)
[15] = tested on: peach potato aphids (Myzus persicae); experiment: whole plant or invertebrate; settings: 72 h, read-out: mortality (score) Mp
Description: as §1, §2, §3

[16] = tested on: Venturia inaequalis (VENTIN); experiment: foliar fungicide test on apples (Example 18); assay type: in vivo; settings: 100 ppm foliar spray on apples; inoculated one day after chemical application (Prot)

SMILES | PLASVI Prot, PRCO (Percentage Reduction from Control) [1] | mortality (score) Mp [2] | mortality (score) Tu [3] | ERYSGT Prot, PRCO (Percentage Reduction from Control) [5] | mortality (score) Dm [8] | mortality (score) Px [9] | PHYTIN Prot, PRCO (Percentage Reduction from Control) [11] | UNCINE Erad, PRCO (Percentage Reduction from Control) [12] | PUCCRT Prot, PRCO (Percentage Reduction from Control) [13] | PYRIOR Prot, PRCO (Percentage Reduction from Control) [14] | mortality at 500 ppm [15] | further results
Cc1nsc(NC(=O)C(F)c2ccc3oc(CC(C)(C)C)nc3c2)c1Cl (stereo not shown) [Table 5 Compound 7] | 98 | 9 (9 indicates 80-100% mortality) | 9 (9 indicates 80-100% mortality) | 100 |  |  |  |  |  |  |  | PUCCRT Prot, PRCO (Percentage Reduction from Control) [4]: 96
Cc1nsc(NC(=O)C(CC#N)c2ccc3oc(CC(C)(C)C)nc3c2)c1Cl (stereo not shown) [Table 20 Compound 7] | 100 | 5 (5 indicates 40-79% mortality) | 9 (9 indicates 80-100% mortality) |  | 0 (represents less than 40% mortality) | 9 (9 indicates 80-100% mortality) |  |  |  |  |  | mortality (score) Hv [6]: 0 (represents less than 40% mortality); mortality (score) Db [7]: 0 (represents less than 40% mortality); PHYTIN Prot, PRCO (Percentage Reduction from Control) [10]: 72
COC=C(C(=O)Nc1snc(C)c1Cl)c1ccc2oc(CC(C)(C)C)nc2c1 [Table 13 Compound 7] | 100 | 9 (9 indicates 80-100% mortality) |  |  | 0 (represents less than 40% mortality) | 0 (represents less than 40% mortality) |  |  |  |  |  | PHYTIN Prot, PRCO (Percentage Reduction from Control) [10]: 100
Cc1nsc(NC(=O)C(c2ccc3oc(CC(C)(C)C)nc3c2)C(C)C)c1Cl (stereo not shown) [Table 3 Compound 7] |  |  |  |  |  |  | 20 | 91 | 19 |  |  | 
C=C(C(=O)Nc1snc(C)c1Cl)c1ccc2oc(CC(C)(C)C)nc2c1 [Table 11 Compound 7] |  |  |  |  |  |  | 50 |  | 27 | 66 |  | UNCINE Prot, PRCO (Percentage Reduction from Control) ([12]; inoculated one day after chemical application (Prot)): 73
Cc1nsc(NC(=O)C(=CN(C)C)c2ccc3oc(CC(C)(C)C)nc3c2)c1Cl [Table 14 Compound 7, N-(4-chloro-3-methylisothiazol-5-yl)-α-[(dimethylamino)methylene]-[2-(2,2-dimethylpropyl)benzoxazol-5-yl]acetamide] |  |  | 9 (9 indicates 80-100% mortality) | 83 |  |  | 0 | 100 | 98 | 92 | 80 to 100% | VENTIN Prot, PRCO (Percentage Reduction from Control) [16]: 85
CCNC=C(C(=O)Nc1snc(C)c1Cl)c1ccc2oc(CC(C)(C)C)nc2c1 [Table 15 Compound 7, N-(4-chloro-3-methylisothiazol-5-yl)-α-[(ethylamino)methylene]-[2-(2,2-dimeth-ylpropyl)benzoxazol-5-yl]acetamide] |  |  | 9 (9 indicates 80-100% mortality) |  |  |  |  | 100 | 100 | 57 | 80 to 100% | VENTIN Prot, PRCO (Percentage Reduction from Control) [16]: 53
Cc1nsc(NC(=O)C(C)c2ccc3oc(CC(C)(C)C)nc3c2)c1Cl (stereo not shown) [Table 1 Compound 7, N-(4-chloro-3-methylisothiazol-5-yl)-2-[2-(2,2-dimethylpropyl)benzoxazol-5-yl]propionamide] |  |  |  |  |  |  |  | 100 | 85 | 24 | 40 to 79% | 
Cc1nsc(NC(=O)Cc2ccc3oc(CC(C)(C)C)nc3c2)c1Cl |  |  |  |  |  |  |  |  |  |  |  | melting point: 144 to 145 °C
Cc1nsc(NC(=O)C(=CO)c2ccc3oc(CC(C)(C)C)nc3c2)c1Cl [Table 12 Compound 7] | 100 | 0 (represents less than 40% mortality) | 9 (9 indicates 80-100% mortality) | 78 | 0 (represents less than 40% mortality) | 9 (9 indicates 80-100% mortality) |  |  |  |  |  | mortality (score) Db [7]: 9 (9 indicates 80-100% mortality); PUCCRT Prot, PRCO (Percentage Reduction from Control) [4]: 97
